Measured values taken from publication PMC9340770 (Journal of Medicinal Chemistry, 2022).
pIC50: −log10 of the molar value. Read-outs that look alike come from different tables or passages of the source. One block for each molecule: values may come before it.

What was measured:
[1] = tested on: phosphorylated ERK1/2 (pERK) in MKN1 cells; test: cells; type: cell-based; details: Homo sapiens
[2] = target: T1, human EGFR (Homo sapiens, UniProt P00533); type: biochemical
T1 construct: purchased Reaction Biology

[3] = in vivo; details: CD-1, mouse, pH 5; for clearance: iv, 3 mg/kg; for AUC(0-t) / bioavailability: po, 100 mg/kg
[4] = Human liver microsome intrinsic clearance; type: in vitro ADME; details: human liver microsomes
[5] = tested on: pERK in MIA PaCa-2 tumors; test: Tumor pharmacodynamic (pERK) study in MIA PaCa-2 mouse xenograft
[6] = tested on: MIA PaCa-2 tumor mouse xenograft; test: Antitumor efficacy study in MIA PaCa-2 mouse xenograft; details: single agent MRTX849, 10 mg/kg qd, 25 days
[7] = MKN-1, In-Cell Western Assay measuring pERK, read-out: MKN1 Cell IC50
[8] = MKN-1, read-out: MKN1 Cell IC50
[9] = PO CD-1 mice, 100 mg/kg, 0.5% MC (4000 cps)/0.2% Tween80 in water

T1 sequence (P00533 25-1210): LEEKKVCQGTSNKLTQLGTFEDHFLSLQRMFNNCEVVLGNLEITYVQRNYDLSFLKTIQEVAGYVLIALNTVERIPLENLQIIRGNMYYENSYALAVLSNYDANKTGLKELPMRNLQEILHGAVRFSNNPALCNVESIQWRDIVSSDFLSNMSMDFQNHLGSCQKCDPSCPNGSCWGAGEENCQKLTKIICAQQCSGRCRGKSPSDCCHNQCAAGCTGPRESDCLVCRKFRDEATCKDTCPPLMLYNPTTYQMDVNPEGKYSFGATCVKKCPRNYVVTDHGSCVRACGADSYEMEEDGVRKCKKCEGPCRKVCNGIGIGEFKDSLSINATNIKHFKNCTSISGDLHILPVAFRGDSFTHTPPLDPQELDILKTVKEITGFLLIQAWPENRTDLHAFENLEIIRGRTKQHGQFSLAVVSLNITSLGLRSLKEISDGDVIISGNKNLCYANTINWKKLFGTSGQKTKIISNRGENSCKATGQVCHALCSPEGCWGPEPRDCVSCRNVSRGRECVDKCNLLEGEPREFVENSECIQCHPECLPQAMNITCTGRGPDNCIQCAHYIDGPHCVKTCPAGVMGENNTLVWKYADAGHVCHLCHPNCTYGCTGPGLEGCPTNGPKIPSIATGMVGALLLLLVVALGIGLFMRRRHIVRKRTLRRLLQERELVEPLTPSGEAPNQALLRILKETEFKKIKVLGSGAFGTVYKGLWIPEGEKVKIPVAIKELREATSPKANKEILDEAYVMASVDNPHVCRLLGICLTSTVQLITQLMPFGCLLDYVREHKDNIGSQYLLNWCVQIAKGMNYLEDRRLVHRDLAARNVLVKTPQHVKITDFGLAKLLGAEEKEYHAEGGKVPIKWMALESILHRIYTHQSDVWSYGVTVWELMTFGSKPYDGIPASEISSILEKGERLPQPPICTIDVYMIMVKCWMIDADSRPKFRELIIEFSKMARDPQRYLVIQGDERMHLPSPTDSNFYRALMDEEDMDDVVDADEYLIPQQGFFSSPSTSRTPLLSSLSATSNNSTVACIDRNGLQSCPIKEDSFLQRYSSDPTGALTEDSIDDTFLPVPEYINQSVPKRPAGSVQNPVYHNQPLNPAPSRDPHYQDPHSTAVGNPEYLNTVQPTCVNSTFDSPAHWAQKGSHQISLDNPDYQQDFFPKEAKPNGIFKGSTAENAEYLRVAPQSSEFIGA

Compound: COc1cc2cnnc(N[C@H](C)c3ccccc3)c2cc1OC [Compound 6]
pIC50 [1, 7]: < 5.00
pIC50 ([2]; 10 μM ATP): < 5.00

Compound: COc1cc2cnnc(N[C@H](C)c3cccc4ccccc34)c2cc1OC [Compound 7]
pIC50 [1, 7]: < 5.00
pIC50 ([2]; 10 μM ATP): < 5.00

Compound: COc1cc2cnnc(N[C@H](C)c3cccc(C(F)(F)F)c3)c2cc1OC [Compound 8]
pIC50 [1, 8]: 6.02
pIC50 ([2]; 10 μM ATP): < 5.00

Compound: COc1cc2cnnc(N[C@H](C)c3ccccc3C)c2cc1OC [Compound 9]
pIC50 [1, 7]: < 5.00
pIC50 ([2]; 10 μM ATP): < 5.00

Compound: COc1cc2cnnc(N[C@H](C)c3cccc(C(F)(F)F)c3C)c2cc1OC [Compound 10]
pIC50 ([2]; 10 μM ATP): < 5.00

Compound: CNCc1ccccc1-c1csc([C@@H](C)Nc2nncc3cc(OC)c(OC)cc23)c1 [Compound 11]
pIC50 [2]: < 5.00

Compound: Cc1c([C@@H](C)Nc2nnc(C)c3ccc(N4CCNCC4)cc23)cccc1C(F)(F)F [Compound 15]
clearance [3]: 85 mL/min/kg
AUC(0-t) [3]: 1300 ng·h/mL
bioavailability [3]: 11%

Compound: Cc1c([C@@H](C)Nc2nnc(C)c3ccc(C4CCNCC4)cc23)cccc1C(F)(F)F [Compound 16]
pIC50 [1, 8]: 6.74

Compound: Cc1c([C@@H](C)Nc2nnc(C(F)(F)F)c3ccc(N4CCNCC4)cc23)cccc1C(F)(F)F [Compound 18]
pIC50 [1, 7]: < 5.00

Compound: COc1nnc(N[C@H](C)c2cccc(C(F)(F)F)c2C)c2cc(N3CCNCC3)ccc12 [Compound 19]
pIC50 [1, 7]: < 5.00

Compound: Cc1c([C@@H](C)Nc2n[nH]c(=O)c3ccc(N4CCNCC4)cc23)cccc1C(F)(F)F [Compound 21]
pIC50 [1, 8]: 6.94

Compound: Cc1c([C@@H](C)Nc2nn(C)c(=O)c3ccc(N4CCNCC4)cc23)cccc1C(F)(F)F [Compound 22]
pIC50 [1, 8]: 6.06

Compound: Cc1c([C@@H](C)Nc2nnc(C)c3cnc(N4CCNCC4)cc23)cccc1C(F)(F)F [Compound 23]
clearance [3]: 52 mL/min/kg
AUC(0-t) [3]: 9970 ng·h/mL
bioavailability [3]: 44%
Eh (mouse, IV 3 mg/kg): 0.58
CLint scaled [4]: 27 mL/min/kg

Compound: Cc1c([C@@H](C)Nc2nnc(C)c3cnc(N4CCOCC4)cc23)cccc1C(F)(F)F [Compound 24]
pIC50 [1, 7]: 7.59
clearance [3]: 17 mL/min/kg
mPK PO Dosing %F [9]: ~100%
mPK PO Dosing AUC0-last [9]: 130318 ng·h/mL
CLint scaled [4]: 114 mL/min/kg
tumor pERK modulation, single agent ([5]; 24 at 100 mg/kg bid PO, 21 days, 3 h after last dose): No modulation
reduction in tumor pERK, combination ([5]; 24 at 100 mg/kg bid in combination with MRTX849 10 mg/kg qd, PO, 21 days, 3 h after last dose): 69%

CLint scaled [4]: 214 mL/min/kg
Compound: Cc1nnc(N[C@H](C)c2cccc(C(F)(F)F)c2F)c2cc(N3CCOCC3)ncc12 [Compound 25]

Compound: Cc1nnc(N[C@H](C)c2cccc(C(F)(F)F)n2)c2cc(N3CCOCC3)ncc12 [Compound 26]
pIC50 [1, 8]: 6.73
CLint scaled [4]: 206 mL/min/kg

CLint scaled [4]: 18 mL/min/kg
Compound: Cc1nnc(N[C@H](C)c2cc(N)cc(C(F)(F)F)n2)c2cc(N3CCOCC3)ncc12 [Compound 27]

CLint scaled [4]: 21 mL/min/kg
Compound: Cc1ncccc1[C@@H](C)Nc1nnc(C)c2cnc(N3CCOCC3)cc12 [Compound 28]

Compound: Cc1nn(C)cc1[C@@H](C)Nc1nnc(C)c2cnc(N3CCOCC3)cc12 [Compound 29]
pIC50 [1, 8]: 5.48
CLint scaled [4]: 15 mL/min/kg

Compound: Cc1nnc(N[C@H](C)c2cn(C)nc2C(F)(F)F)c2cc(N3CCOCC3)ncc12 [Compound 30]
pIC50 [1, 8]: 5.94
CLint scaled [4]: 37 mL/min/kg

Compound: Cc1c(Br)cccc1[C@@H](C)Nc1nnc(C)c2cnc(N3CCOCC3)cc12 [Compound 31]
pIC50 [1, 8]: 6.94
CLint scaled [4]: 396 mL/min/kg

CLint scaled [4]: 7.9 mL/min/kg
Compound: Cc1c([C@@H](C)Nc2nnc(C)c3cnc(N4CCOCC4)cc23)cccc1S(C)(=O)=O [Compound 33]

CLint scaled [4]: 505 mL/min/kg
Compound: Cc1nnc(N[C@H](C)c2cccc(C#N)c2)c2cc(N3CCOCC3)ncc12 [Compound 34]

Compound: Cc1c(C#N)cccc1[C@@H](C)Nc1nnc(C)c2cc(F)c(N3CCOCC3)cc12 [Compound 35]
pIC50 [1, 7]: 6.92

Compound: Cc1c(C#N)cccc1[C@@H](C)Nc1nnc(C)c2cc(Cl)c(N3CCOCC3)cc12 [Compound 36]
pIC50 [1, 8]: 6.54

Compound: Cc1c(C#N)cccc1[C@@H](C)Nc1nnc(C)c2cc(C#N)c(N3CCOCC3)cc12 [Compound 37]
pIC50 [1, 7]: 6.31

Compound: C=C(F)C(=O)N1CCN(c2nc(OC[C@@H]3CCCN3C)nc3c2CCN(c2cccc4cccc(Cl)c24)C3)C[C@@H]1CC#N [MRTX849, adagrasib, reference compound]
tumor pERK modulation, single agent ([5]; MRTX849 at 10 mg/kg qd PO, 21 days): No modulation
plasma concentration of MRTX849 ([5]; MRTX849 dosed in combination with MRTX0902): remained unchanged
tumor growth inhibition (TGI) [6]: 94%
